According to patent US9192601B2, “Methods for enhancing muscle performance and tone” (Salk Institute for Biological Studies, priority 2006, dated 2015):

Columns and labels:
[1] = Exercise effect in healthy adult human subjects (Example 9); type: in vivo; settings: 1 to 20 mg per day oral with aerobic exercise
Protocol: Healthy adult human subjects perform aerobic exercise (e.g., running) for at least 30 minutes (e.g., 30-90 minutes) for at least 3-4 days per week (e.g., 3-7 days per week) for at least 2 weeks (e.g., at least 4-12 weeks). The exercise is performed at 40%-50% maximal heart rate, […] maximal heart rate, 60%-70% maximal heart rate, or 75%-80% maximal heart rate, where maximum heart rate for a human subject is calculated as: 220 bps−(age of the subject). […] Subjects can continue to perform aerobic exercise while receiving GW1516. […] The exercise effect achieved in the treated subjects (e.g., running endurance) can be compared to such an effect in untreated subjects. Exercise effect can be measured using methods known in the art, such as measuring aerobic or running endurance (for example measuring distance run until exhaustion or amount of time to run a particular distance). In some instances, the exercise effect of interest is increased in treated subjects by at least 5%, such as at least 10% as compared to untreated subjects.

p44/42 MAPK = assay: Western blot of phospho-p44/42 MAPK in quadriceps; type: in vivo, mouse; settings: sedentary or trained muscles
Text: Exercise training is known to activate kinases, such as p44/42 MAPK and AMPK, which regulate gene expression in skeletal muscle (Chen et al., Diabetes, 52:2205-12, 2003; Goodyear et al., Am. J. Physiol, 271:[…]-8, 1996). AMPK affects skeletal muscle gene expression and oxidative metabolism (Chen et al., Diabetes. 52: 2205-12, 2003, Reznick et al., J. Physiol. 574: 33-9, 2006). The interaction between exercise-regulated kinases and PPARδ signaling is described in this Example. The levels of phospho-p44/42 MAPK and phospho-AMPK a subunit and total AMPK were determined in protein homogenates of quadriceps muscle by Western blot. Antibodies specific for phospho-p44/42 MAPK, phospho- and total-AMPK αl antibodies were obtained from Cell Signaling. The phospho-specific AMPK αl antibody recognizes the key activating threonine in the activation loop.

epididymal white adipose = assay: Epididymal fat to body weight ratio and H&E staining of white adipose; type: in vivo, mouse; settings: GW1516 in combination with exercise
Protocol: Hematoxylin and eosin (H&E) staining of white adipose tissue paraffin sections was performed as previously described (Wang et al., PLoS Biol., 2:e294, 2004; Wang et al., Cell, 113:159-70, 2003).

[2] = Muscle triglyceride (mTG) content; type: in vivo, mouse
Protocol: Altered triglycerides can be used to access changes in muscle oxidative capacity. Muscle triglyceride (mTG) content was measured as previously described (Wang et al., PLoC Biol, 2:e294, 2004) using a kit from Thermo Electron Corporation. […] Gene and/or protein expression that is induced by a combination of exercise and drug treatment (e.g., PPARδ agonist administration) but not by either input alone is believed to be a new discovery. This type of response can be used to further characterize the intersection of pharmacologic and physiologic genetic networks. For example, one or more genes and/or proteins uniquely regulated by one or more drugs {e.g., PPARδ agonists) and exercise can be used as markers, for instance, of illicitly boosting performance in professional and/or amateur athletes.

mitochondrial DNA = assay: Mitochondrial DNA expression by QPCR; type: in vivo, mouse
Protocol: In addition to its effects on the fiber type, exercise training increased skeletal muscle mitochondrial biogenesis, which can be measured as a function of mitochondrial DNA expression levels using quantitative real time PCR (QPCR). Mitochondrial DNA expression levels were determined in muscles of V, GW, Tr, and GW+Tr subjects using quantitative real time PCR. […] Such an increase is known to contribute to enhanced endurance capacity (e.g., Holloszy, Med. Sci. Sports 7:155-64, 1975). Slow-twitch and fast-twitch muscle fiber types also can be distinguished by myosin isoform expression (Gauthier and Lowey, J. Cell Biol. 81:10-25, 1979; Fitzsimons and Hoh, Biochem. J. 193:229-33, 1981). […] Therefore, at least at the transcriptional level, the PPARδ agonist was capable of inducing some proteins characteristic of a slow-twitch muscle fiber phenotype.

Compound: Cc1cc(SCc2sc(-c3ccc(C(F)(F)F)cc3)nc2C)ccc1OCC(=O)O [GW1516, (2-methyl-4(((4-methyl-2-(4-trifluoromethylphenyl)-1,3-thiazol-5-yl)methyl)sulfanyl)phenoxy)acetic acid]
- increase of exercise effect vs untreated subjects [1]: at least 5%
- activation of p44/42 (p44/42 MAPK): failed to activate
- cross-sectional area of the adipocytes (epididymal white adipose): decreased
- exercise-induced increase in muscle triglycerides ([2]; GW1516-treated exercise trained mice): completely reversed
- mTG content vs vehicle ([2]; sedentary mice): comparable
- increase in mitochondrial DNA expression (mitochondrial DNA; combination of exercise and GW1516): approximately 50%
- mitochondrial DNA expression (mitochondrial DNA; drug alone): not changed
